Converted amounts (≈) assume the structure as drawn. Where two headings read alike, the source gives them in different places.
Columns and labels:
Format in all cases: cell-based
Clostridium difficile = test: Broth microdilution MIC against Clostridium difficile strains; details: Clostridioides difficile
Protocol: The broth microdilution assay was utilized following the Clinical and Laboratory Standards Institute (CLSI) guidelines with slight modifications. Briefly, C. difficile strains were grown on anaerobic blood agar plates (Becton Dickinson, BD) and suspended in brain heart infusion supplemented broth (Brain heart infusion medium, BD, supplemented with yeast extract, L-cysteine, Vitamin K1 and Hemin, Sigma) to achieve a bacterial concentration of ~10^5 CFU/ml. The bacterial suspension was seeded in 96-well plates containing drugs/compounds, in duplicate, at the required concentration. Plates were then incubated at 37 °C anaerobically for 48 hours. MICs reported are the lowest concentration of each agent that inhibited the visual growth of bacteria.

E. faecalis = test: Broth microdilution MIC against E. faecalis strains; details: Enterococcus faecalis, read-out: Minimum inhibitory concentration
E. faecium = test: Broth microdilution MIC against E. faecium strains; details: Enterococcus faecium, read-out: Minimum inhibitory concentration
[1] = system: human ileocecal colorectal adenocarcinoma cell line (HRT-18); test: Cytotoxicity, MTS assay, HRT-18 cells; details: 32 µg mL^−1, 2 hours
Protocol: Briefly, ~2 × 10^4 cells suspended in 100 µL of RPMI-1640 supplemented with 10% horse serum were seeded in a 96-well plate and incubated at 37 °C with 5% CO2. The cells were cultured for 24 hours until reaching ~90% confluency. The cells were further incubated with the aforementioned concentrations of the compounds for 2 hours. Afterwards, culture media were discarded and the cells in each well were washed with PBS and 100 µL of cell culture media were added prior to addition of the assay reagent MTS 3-(4,5-dimethylthiazol-2-yl)-5-(3-carboxymethoxyphenyl)-2-(4-sulfophenyl)-2H-tetrazolium) (Promega). The plates were incubated for 4 hours at 37 °C in a humidified 5% CO2 atmosphere. The absorbance was recorded at 490 nm and the corrected absorbance readings (actual absorbance readings for each treatment subtracted from background absorbance) were taken using a kinetic ELISA microplate reader (SpectraMax i3x, Molecular Devices, Sunnyvale, CA, USA). The quantity of viable cells after treatment with each compound was expressed as a percentage of the control, DMSO. Asterisk (*) denotes a significant difference from the DMSO-treated cells using 2-way analysis of variance (ANOVA) followed by Dunnett’s pairwise comparison.

[2] = system: vancomycin-resistant and vancomycin-susceptible strains of Enterococcus; test: Broth microdilution MIC against Enterococcus strains (E. faecalis and E. faecium, summary in text); details: all E. faecalis and E. faecium strains tested, vancomycin-resistant and -sensitive
[3] = C. difficile Isolate 1 (NR-13427), read-out: Minimum inhibitory concentration
[4] = C. difficile Isolate 2 (NR-13428), read-out: Minimum inhibitory concentration
[5] = C. difficile Isolate 4 (NR-13430), read-out: Minimum inhibitory concentration
[6] = C. difficile Isolate 5 (NR-13431), read-out: Minimum inhibitory concentration
[7] = C. difficile Isolate 6 (NR-13432), read-out: Minimum inhibitory concentration
[8] = C. difficile Isolate 9 (NR-13435), read-out: Minimum inhibitory concentration
[9] = C. difficile Isolate 10 (NR-13436), read-out: Minimum inhibitory concentration
[10] = C. difficile P2 (NR-32883), read-out: Minimum inhibitory concentration
[11] = C. difficile P4 (NR-32889), read-out: Minimum inhibitory concentration
[12] = C. difficile P8 (NR-32888), read-out: Minimum inhibitory concentration
[13] = C. difficile P13 (NR-32891), read-out: Minimum inhibitory concentration
[14] = C. difficile P15 (NR-32892), read-out: Minimum inhibitory concentration
[15] = C. difficile P20 (NR-32896), read-out: Minimum inhibitory concentration
[16] = C. difficile P21 (NR-32897), read-out: Minimum inhibitory concentration
[17] = C. difficile P29 (NR-32903), read-out: Minimum inhibitory concentration
[18] = across all tested strains of C. difficile
[19] = E. faecalis SF28073 (vancomycin-resistant)
[20] = E. faecium E417 (vancomycin-resistant)

In the case of `Cc1ncc([N+](=O)[O-])n1CCO` [Metronidazole, reference compound], the MIC (Clostridium difficile; [3]) is reported as 0.25 µg/mL (≈ 1.46 µM), the MIC (Clostridium difficile; [4]) is reported as 0.0625 µg/mL (≈ 0.365 µM) and the MIC (Clostridium difficile; [5]) is reported as 0.5 µg/mL (≈ 2.92 µM). It also gave an MIC (Clostridium difficile; [6]) of 0.25 µg/mL (≈ 1.46 µM), an MIC (Clostridium difficile; [7]) of 0.125 µg/mL (≈ 0.73 µM) and an MIC (Clostridium difficile; [8]) of 0.0625 µg/mL (≈ 0.365 µM). The MIC (Clostridium difficile; [9]) was 0.125 µg/mL (≈ 0.73 µM), the MIC (Clostridium difficile; [10]) was 0.0625 µg/mL (≈ 0.365 µM) and the MIC (Clostridium difficile; [11]) was 0.125 µg/mL (≈ 0.73 µM). For the same compound, the MIC (Clostridium difficile; [12]) was 0.125 µg/mL (≈ 0.73 µM), the MIC (Clostridium difficile; [13]) was 0.25 µg/mL (≈ 1.46 µM) and the MIC (Clostridium difficile; [14]) was 0.0625 µg/mL (≈ 0.365 µM). It also gave an MIC (Clostridium difficile; [15]) of 0.25 µg/mL (≈ 1.46 µM), an MIC (Clostridium difficile; [16]) of 0.125 µg/mL (≈ 0.73 µM) and an MIC (Clostridium difficile; [17]) of 0.0625 µg/mL (≈ 0.365 µM). It also gave an MIC (Clostridium difficile; C. difficile strains P8, P13 and Isolate 10) of under 0.25 µg/mL.
`CCCCCCN(Cc1cccc2ccccc12)C(=O)[C@@H](N)CCCCN` [NCK-6] showed an MIC (Clostridium difficile; [3]) of 64 µg/mL (≈ 173 µM), an MIC (Clostridium difficile; [4]) of 64 µg/mL (≈ 173 µM) and an MIC (Clostridium difficile; [5]) of 64 µg/mL (≈ 173 µM). The MIC (Clostridium difficile; [6]) was 32 µg/mL (≈ 86.6 µM), the MIC (Clostridium difficile; [7]) was 64 µg/mL (≈ 173 µM) and the MIC (Clostridium difficile; [8]) was 32 µg/mL (≈ 86.6 µM). The MIC (Clostridium difficile; [9]) was 64 µg/mL (≈ 173 µM), the MIC (Clostridium difficile; [10]) was 64 µg/mL (≈ 173 µM) and the MIC (Clostridium difficile; [11]) was 64 µg/mL (≈ 173 µM). For the same compound, the MIC (Clostridium difficile; [12]) was 64 µg/mL (≈ 173 µM), the MIC (Clostridium difficile; [13]) was 64 µg/mL (≈ 173 µM) and the MIC (Clostridium difficile; [14]) was 64 µg/mL (≈ 173 µM). It also gave an MIC (Clostridium difficile; [15]) of 64 µg/mL (≈ 173 µM), an MIC (Clostridium difficile; [16]) of 32 µg/mL (≈ 86.6 µM) and an MIC (Clostridium difficile; [17]) of 32 µg/mL (≈ 86.6 µM). For the same compound, the MIC (Clostridium difficile; [18]) was 32 µg/mL (≈ 86.6 µM), the MIC (E. faecalis; E. faecalis B3196) was 128 µg/mL (≈ 346 µM) and the MIC (E. faecalis; E. faecalis B3286) was 128 µg/mL (≈ 346 µM). It also gave an MIC (E. faecalis; E. faecalis B3336) of 128 µg/mL (≈ 346 µM), an MIC (E. faecalis; E. faecalis SF24397) of 128 µg/mL (≈ 346 µM) and an MIC (E. faecalis; [19]) of 128 µg/mL (≈ 346 µM). The MIC (E. faecium; [20]) was 64 µg/mL (≈ 173 µM), the MIC (E. faecium; E. faecium E1071) was 128 µg/mL (≈ 346 µM) and the MIC (E. faecium; E. faecium UAA714) was 128 µg/mL (≈ 346 µM). The “toxicity to HRT-18 cells” value [1] was “survived” and the MIC [2] was 64 to 128 µg/mL (≈ 173 to 346 µM).
`CCCCCCCCN(Cc1cccc2ccccc12)C(=O)[C@@H](N)CCCCN` [NCK-8] gave an MIC (Clostridium difficile; [3]) of 8 µg/mL (≈ 20.1 µM), an MIC (Clostridium difficile; [4]) of 8 µg/mL (≈ 20.1 µM) and an MIC (Clostridium difficile; [5]) of 8 µg/mL (≈ 20.1 µM). For the same compound, the MIC (Clostridium difficile; [6]) was 2 µg/mL (≈ 5.03 µM), the MIC (Clostridium difficile; [7]) was 8 µg/mL (≈ 20.1 µM) and the MIC (Clostridium difficile; [8]) was 4 µg/mL (≈ 10.1 µM). It also gave an MIC (Clostridium difficile; [9]) of 8 µg/mL (≈ 20.1 µM), an MIC (Clostridium difficile; [10]) of 4 µg/mL (≈ 10.1 µM) and an MIC (Clostridium difficile; [11]) of 8 µg/mL (≈ 20.1 µM). The MIC (Clostridium difficile; [12]) was 8 µg/mL (≈ 20.1 µM), the MIC (Clostridium difficile; [13]) was 8 µg/mL (≈ 20.1 µM) and the MIC (Clostridium difficile; [14]) was 8 µg/mL (≈ 20.1 µM). It also gave an MIC (Clostridium difficile; [15]) of 8 µg/mL (≈ 20.1 µM), an MIC (Clostridium difficile; [16]) of 4 µg/mL (≈ 10.1 µM) and an MIC (Clostridium difficile; [17]) of 8 µg/mL (≈ 20.1 µM). The MIC (Clostridium difficile; [18]) was 2 to 8 µg/mL (≈ 5.03 to 20.1 µM), the MIC (E. faecalis; E. faecalis B3196) was 16 µg/mL (≈ 40.2 µM) and the MIC (E. faecalis; E. faecalis B3286) was 32 µg/mL (≈ 80.5 µM). The MIC (E. faecalis; E. faecalis B3336) was 16 µg/mL (≈ 40.2 µM), the MIC (E. faecalis; E. faecalis SF24397) was 16 µg/mL (≈ 40.2 µM) and the MIC (E. faecalis; [19]) was 16 µg/mL (≈ 40.2 µM). For the same compound, the MIC (E. faecium; [20]) was 8 µg/mL (≈ 20.1 µM), the MIC (E. faecium; E. faecium E1071) was 16 µg/mL (≈ 40.2 µM) and the MIC (E. faecium; E. faecium UAA714) was 16 µg/mL (≈ 40.2 µM). The “toxicity to HRT-18 cells” value [1] was “survived” and the MIC [2] was 8 to 32 µg/mL (≈ 20.1 to 80.5 µM).

Source: PMC7101335, “Aryl-alkyl-lysines: Novel agents for treatment of C. difficile infection” (Scientific Reports, 2020)
